# Target: human DP2 (Homo sapiens (Human), UniProt Q9Y5Y4)
# Test: DP-2 Binding Inhibition Assay (3H-PGD2 binding to membranes of K562 cells expressing DP2)
# Conditions: EC50 (Nm) 1% HSA, inhibition of 3H-PGD2 binding, 1% HSA
# Procedure: DP-2 Binding Inhibition Assay
# The coding sequence of human DP2 was introduced into the human Leukemic cell line K562 by electroporation and stable clones expressing DP2 were obtained by limiting dilution followed by cell surface staining with a rat monoclonal antibody specific for human DP2. Membranes were prepared from one of these DP2 expressing clones and used to determine the ability of compounds of the present invention to inhibit binding of prostaglandin D2 (PGD2) to its receptor DP2 in the presence of one or more of the following serum protein concentrations, 0.1% BSA, 1% HSA or 4% HSA, by the following procedure. Membranes (1.25 μg/well for 0.1% BSA and 6 μg/well for 1% or 4% HSA) were mixed with ^3H-labeled PGD2 and various concentrations of test compounds in 150 μL of binding buffer (50 mM Tris-HCl, pH 7.4, 40 mM MgCl2, 0.1% bovine serum albumin, 0.1% NaN3) in 96-well U-bottom polypropylene plates. After incubation for 60 minutes at room temperature, the assay was transferred to a filtration plate (#MAFB; Millipore Corporation, Bedford, Mass.), and washed three times with binding buffer. Radioactivity was measured by a scintillation counter (TopCount; PerkinElmer Life Sciences, Boston, Mass.). Nonspecific binding was determined by incubations in the presence of 1 μM unlabeled PGD2 or 5 μM of a known DP2 antagonist. EC50 values for inhibition of binding were determined for each compound tested from the inflexion point of a standard 4-parameter logistical curve fitted to the values obtained.
# Sequence of human DP2 (Q9Y5Y4 whole entry): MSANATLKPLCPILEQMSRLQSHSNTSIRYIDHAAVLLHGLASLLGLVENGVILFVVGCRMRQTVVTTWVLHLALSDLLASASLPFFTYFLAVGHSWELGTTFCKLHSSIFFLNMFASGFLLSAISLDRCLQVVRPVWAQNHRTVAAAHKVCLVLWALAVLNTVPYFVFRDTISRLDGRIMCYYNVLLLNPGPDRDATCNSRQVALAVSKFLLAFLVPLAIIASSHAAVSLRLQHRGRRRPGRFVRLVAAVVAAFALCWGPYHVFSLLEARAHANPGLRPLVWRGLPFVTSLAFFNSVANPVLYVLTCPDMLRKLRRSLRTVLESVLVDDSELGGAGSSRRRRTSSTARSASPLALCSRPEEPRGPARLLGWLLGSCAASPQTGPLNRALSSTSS
row,EC50 [nM],SMILES
1,9.3,"O=C(NCCc1ccc(Cl)cc1)c1ccc(Oc2cc3c(cc2Cl)C(C(=O)O)CCO3)cc1 (single isomer, unassigned) [Example 11 Enantiomer 2, 6-Chloro-7-(4-(4-chlorophenethylcarbamoyl)phenoxy)chroman-4-carboxylic acid]"

# Same assay, conditions: EC50 (nM) 4% HSA, inhibition of 3H-PGD2 binding, 4% HSA
row,SMILES,EC50 [nM]
1,"COc1cc(C2CC2)ccc1CCNC(=O)c1ccc(Oc2cc3c(cc2Cl)C(C(=O)O)CCO3)cc1 (single isomer, unassigned) [235 Enantiomer 1, 6-chloro-7-(4-(4-cyclopropyl-2-methoxyphenethylcarbamoyl)phenoxy)chroman-4-carboxylic acid]",> 5000
2,"O=C(NCCc1ccc(Cl)cc1Cl)c1ccc(Oc2cc3c(cc2Cl)C(C(=O)O)CCO3)cc1 (single isomer, unassigned) [Example 106 Enantiomer 1, 6-chloro-7-(4-(2,4-dichlorophenethylcarbamoyl)phenoxy)chroman-4-carboxylic acid]",> 5000
3,"O=C(NC1CCC(c2ccccc2)CC1)c1ccc(Oc2cc3c(cc2Cl)C(C(=O)O)CCO3)cc1 (single isomer, unassigned) [Example 155 peak 1, 6-chloro-7-(4-(4-phenylcyclohexylcarbamoyl)phenoxy)chroman-4-carboxylic acid, isomer 1]",399
4,"O=C(NC1CCC(c2ccccc2)CC1)c1ccc(Oc2cc3c(cc2Cl)C(C(=O)O)CCO3)cc1 (single isomer, unassigned) [Example 155 peak 2, 6-chloro-7-(4-(4-phenylcyclohexylcarbamoyl)phenoxy)chroman-4-carboxylic acid, isomer 2]",1670

# Further lines, results first:
row,EC50 [nM],SMILES
1,111,"O=C(NCCc1ccc(Cl)cc1)c1ccc(Oc2cc3c(cc2Cl)C(C(=O)O)CCO3)cc1 (single isomer, unassigned) [Example 11 Enantiomer 2, 6-Chloro-7-(4-(4-chlorophenethylcarbamoyl)phenoxy)chroman-4-carboxylic acid]"
2,794,"O=C(NCCc1ccccc1)c1ccc(Oc2cc3c(cc2Cl)C(C(=O)O)CCO3)cc1 (stereo not shown) [Example 12, Sodium 6-chloro-7-(4-(phenethylcarbamoyl)phenoxy)chroman-4-carboxylate]"

# Same assay, conditions: assay described in Example A
row,SMILES,relative activity of the enantiomers in the DP2 binding inhibition assay
1,"COc1cc(C2CC2)ccc1CCNC(=O)c1ccc(Oc2cc3c(cc2Cl)C(C(=O)O)CCO3)cc1 (single isomer, unassigned) [235 Enantiomer 1, 6-chloro-7-(4-(4-cyclopropyl-2-methoxyphenethylcarbamoyl)phenoxy)chroman-4-carboxylic acid]",less active than the sodium salt of Enantiomer 2
2,"O=C(NCCc1ccc(Cl)cc1)c1ccc(Oc2cc3c(cc2Cl)C(C(=O)O)CCO3)cc1 (single isomer, unassigned) [Example 11 Enantiomer 2, 6-Chloro-7-(4-(4-chlorophenethylcarbamoyl)phenoxy)chroman-4-carboxylic acid]",more potent DP2 binding enantiomer
3,"O=C(NCCc1ccc(Cl)cc1Cl)c1ccc(Oc2cc3c(cc2Cl)C(C(=O)O)CCO3)cc1 (single isomer, unassigned) [Example 106 Enantiomer 1, 6-chloro-7-(4-(2,4-dichlorophenethylcarbamoyl)phenoxy)chroman-4-carboxylic acid]",less active than the sodium salt of Enantiomer 2

# Same assay, conditions: read-out: EC50 (Nm) 1% HSA; inhibition of 3H-PGD2 binding, 1% HSA
row,EC50 [nM],SMILES
1,37.4,"N#Cc1cc2c(cc1Oc1ccc(C(=O)NCCc3ccccc3)cc1)OCCC2C(=O)O (stereo not shown) [Example 5, 6-Cyano-7-(4-(phenethylcarbamoyl)phenoxy)chroman-4-carboxylic acid]"
2,77.3,"N#Cc1cc2c(cc1Oc1ccc(C(=O)NC3Cc4ccccc4C3)cc1)OCCC2C(=O)O (stereo not shown) [Example 6, 6-Cyano-7-(4-(2,3-dihydro-1H-inden-2-ylcarbamoyl)phenoxy)chroman-4-carboxylic acid]"
3,19,"N#Cc1cc2c(cc1Oc1ccc(C(=O)NOCc3ccc(Cl)cc3)cc1)OCCC2C(=O)O (stereo not shown) [Example 7, 7-(4-(4-Chlorobenzyloxycarbamoyl)phenoxy)-6-cyanochroman-4-carboxylic acid]"
4,16,"N#Cc1cc2c(cc1Oc1ccc(C(=O)Nc3ccc(Cl)c(Cl)c3)cc1)OCCC2C(=O)O (stereo not shown) [Example 8, 6-Cyano-7-(4-(3,4-dichlorophenylcarbamoyl)phenoxy)chroman-4-carboxylic acid]"
5,203,"O=C(NCCc1ccc(Cl)cc1)c1ccc(Oc2cc3c(cc2Cl)C(C(=O)O)CCO3)c([N+](=O)[O-])c1 (stereo not shown) [Example 9, 6-Chloro-7-(4-(4-chlorophenethylcarbamoyl)-2-nitrophenoxy)chroman-4-carboxylic acid]"
6,13.9,"O=C(NCCc1ccc(Cl)cc1)c1ccc(Oc2cc3c(cc2Cl)C(C(=O)O)CCO3)cc1 (stereo not shown) [Example 10, 6-Chloro-7-(4-(4-chlorophenethylcarbamoyl)phenoxy)chroman-4-carboxylic acid]"

# Same assay, conditions: read-out: EC50 (nM) 4% HSA; inhibition of 3H-PGD2 binding, 4% HSA
row,SMILES,EC50 [nM]
1,"COc1cc(C2CC2)ccc1CCNC(=O)c1ccc(Oc2cc3c(cc2Cl)[C@@H](C(=O)O)CCO3)cc1 (single isomer, unassigned; enantiomer 2) [235 Enantiomer 2]",17
2,"O=C(NCCCCc1cccc(Cl)c1)c1ccc(Oc2cc3c(cc2Cl)C(C(=O)O)CCO3)cc1 (stereo not shown) [Example 14, Sodium 6-chloro-7-(4-(4-(3-chlorophenyl)butylcarbamoyl)phenoxy)chroman-4-carboxylate]",824
3,"O=C(NCC/C=C\c1ccc(Cl)cc1Cl)c1ccc(Oc2cc3c(cc2Cl)C(C(=O)O)CCO3)cc1 (stereo not shown) [Example 18, Sodium (Z)-6-chloro-7-(4-(4-(2,4-dichlorophenyl)but-3-enylcarbamoyl)phenoxy)chroman-4-carboxylate]",502
4,"O=C(NCCCCc1ccc(Cl)cc1Cl)c1ccc(Oc2cc3c(cc2Cl)C(C(=O)O)CCO3)cc1 (stereo not shown) [Example 19, Sodium 6-chloro-7-(4-(4-(2,4-dichlorophenyl)butylcarbamoyl)phenoxy)chroman-4-carboxylate]",638
5,"Cc1ccc(CCNC(=O)c2ccc(Oc3cc4c(cc3Cl)C(C(=O)O)CCO4)cc2)c(C)c1 (stereo not shown) [Example 21, Sodium 6-chloro-7-(4-(2,4-dimethylphenethylcarbamoyl)phenoxy)chroman-4-carboxylate]",169
6,"O=C(NCCC1CC1)c1ccc(Oc2cc3c(cc2Cl)C(C(=O)O)CCO3)cc1 (stereo not shown) [Example 25, Sodium 6-chloro-7-(4-(2-cyclopropylethylcarbamoyl)phenoxy)chroman-4-carboxylate]",3330

# Now from value to compound:
row,EC50 [nM],SMILES
1,225,"O=C(NCCc1ccc(Cl)cc1)c1ccc(Oc2cc3c(cc2Cl)C(C(=O)O)CCO3)cc1 (stereo not shown) [Example 10, 6-Chloro-7-(4-(4-chlorophenethylcarbamoyl)phenoxy)chroman-4-carboxylic acid]"
2,405,"O=C(NCCCCc1ccccc1)c1ccc(Oc2cc3c(cc2Cl)C(C(=O)O)CCO3)cc1 (stereo not shown) [Example 13, Sodium 6-chloro-7-(4-(4-phenylbutylcarbamoyl)phenoxy)chroman-4-carboxylate]"
3,746,"O=C(NCCCCc1ccc(Cl)cc1)c1ccc(Oc2cc3c(cc2Cl)C(C(=O)O)CCO3)cc1 (stereo not shown) [Example 15, Sodium 6-chloro-7-(4-(4-(4-chlorophenyl)butylcarbamoyl)phenoxy)chroman-4-carboxylate]"
4,318,"O=C(NCC/C=C\c1ccccc1Cl)c1ccc(Oc2cc3c(cc2Cl)C(C(=O)O)CCO3)cc1 (stereo not shown) [Example 16, Sodium (Z)-6-chloro-7-(4-(4-(2-chlorophenyl)but-3-enylcarbamoyl)phenoxy)chroman-4-carboxylate]"
5,395,"O=C(NCCCCc1ccccc1Cl)c1ccc(Oc2cc3c(cc2Cl)C(C(=O)O)CCO3)cc1 (stereo not shown) [Example 17, Sodium 6-chloro-7-(4-(4-(2-chlorophenyl)butylcarbamoyl)phenoxy)chroman-4-carboxylate]"
6,759,"Cc1ccccc1CCNC(=O)c1ccc(Oc2cc3c(cc2Cl)C(C(=O)O)CCO3)cc1 (stereo not shown) [Example 20, Sodium 6-chloro-7-(4-(2-methylphenethylcarbamoyl)phenoxy)chroman-4-carboxylate]"
7,327,"O=C(NCCc1ccc(Br)cc1)c1ccc(Oc2cc3c(cc2Cl)C(C(=O)O)CCO3)cc1 (stereo not shown) [Example 23, Sodium 7-(4-(4-bromophenethylcarbamoyl)phenoxy)-6-chlorochroman-4-carboxylate]"
8,482,"O=C(NCCc1ccc(C2CC2)cc1)c1ccc(Oc2cc3c(cc2Cl)C(C(=O)O)CCO3)cc1 (stereo not shown) [Example 24, Sodium 6-chloro-7-(4-(4-cyclopropylphenethylcarbamoyl)phenoxy)chroman-4-carboxylate]"
9,160,"O=C(NCCc1ccc(-c2ccccc2Cl)cc1)c1ccc(Oc2cc3c(cc2Cl)C(C(=O)O)CCO3)cc1 (stereo not shown) [Example 26, Sodium 6-chloro-7-(4-(2-(2′-chlorobiphenyl-4-yl)ethylcarbamoyl)phenoxy)chroman-4-carboxylate]"
10,216,"Cc1cc(Cl)ccc1CCNC(=O)c1ccc(Oc2cc3c(cc2Cl)C(C(=O)O)CCO3)cc1 (stereo not shown) [Example 27, Sodium 6-chloro-7-(4-(4-chloro-2-methylphenethylcarbamoyl)phenoxy)chroman-4-carboxylate]"
11,123,"O=C(NCCc1ccc(Br)cc1Cl)c1ccc(Oc2cc3c(cc2Cl)C(C(=O)O)CCO3)cc1 (stereo not shown) [Example 28, Sodium 7-(4-(4-bromo-2-chlorophenethylcarbamoyl)phenoxy)-6-chlorochroman-4-carboxylate]"
12,137,"O=C(NCCc1ccc(-c2ccccc2Cl)cc1Cl)c1ccc(Oc2cc3c(cc2Cl)C(C(=O)O)CCO3)cc1 (stereo not shown) [Example 29, Sodium 6-chloro-7-(4-(2-(2′,3-dichlorobiphenyl-4-yl)ethylcarbamoyl)phenoxy)chroman-4-carboxylate]"
13,301,"O=C(NCCc1ccc(C2CC2)cc1Cl)c1ccc(Oc2cc3c(cc2Cl)C(C(=O)O)CCO3)cc1 (stereo not shown) [Example 30, Sodium 6-chloro-7-(4-(2-chloro-4-cyclopropylphenethylcarbamoyl)phenoxy)chroman-4-carboxylate]"
14,91.4,"O=C(NCCc1ccc(-c2ccccc2)cc1Cl)c1ccc(Oc2cc3c(cc2Cl)C(C(=O)O)CCO3)cc1 (stereo not shown) [Example 31, Sodium 6-chloro-7-(4-(2-(3-chlorobiphenyl-4-yl)ethylcarbamoyl)phenoxy)chroman-4-carboxylate]"
15,88,"O=C(NCCc1ccc(Cl)cc1Br)c1ccc(Oc2cc3c(cc2Cl)C(C(=O)O)CCO3)cc1 (stereo not shown) [Example 32, Sodium 7-(4-(2-bromo-4-chlorophenethylcarbamoyl)phenoxy)-6-chlorochroman-4-carboxylate]"

# From patent publication US9556139B2, “6-substituted phenoxychroman carboxylic acid derivatives” (Array BioPharma Inc., priority 2008, dated 2017)
